Source: patent publication US20080051381A1, “Suppression of estrus in mares by a single injection method” (priority 2006, published 2008)
Marks after values point to notes of the source that are not given here.

Legend:
[1] = system: estrus and ovulation in light-horse mares; assay: Suppression of estrus and ovulation in mares after a single sustained release injection; format: in vivo, mares (equine)
Method: Thirty one randomly selected light-horse mares are maintained on native pasture and ad libitum hay. Verification of normal reproductive cyclicity is determined by follicular ultrasound, teasing with a vigorous stallion, and radioimmunoassay of plasma progesterone concentrations. Mares displaying estrus (i.e. the estrus mare group) with plasma progesterone levels below 1 ng/mL are followed by ultrasound until a follicle 30 mm or greater is determined. When a follicle reaches 30 mm, 2 mL of 2000 IU human chorionic gonadotropin is administered to induce ovulation. Mares in the estrus group are subsequently followed by ultrasound until ovulation and corpus luteal formation are verified. Six days after ovulation is determined, mares in this group are given a 2 mL injection of dinoprost tromethamine and randomly assigned to a treatment regime set forth in Table 1.
Mares not displaying estrus (i.e. the non-estrus mare group) with progesterone concentrations above 1 ng/mL and the presence of a corpus luteum verified by ultrasound are given 2 mL dinoprost tromethamine. Once estrus is detected by teasing with a stallion, these mares are treated as the mares assigned to the estrus mare group. […]
The mares of each of the groups in Table 1 are followed via ultrasound every other day after treatment until a follicle 25 mm or greater is detected. […]
Injection site assessments are made on days 0, 1, 3, 6, and 9 post-treatment. […] Plasma concentrations of progesterone are measured with commercially available reagents (Diagnostic Systems Laboratories, Webster, Tex.). […] Data are analyzed by the Proc Mixed procedure of SAS (SAS Institute Inc., Cary, N.C.). Single point variables are analyzed via a one way ANOVA. Data from injection site scores are analyzed for effects of treatment, time, and treatment by time interactions with repeated measures. When a significant F is detected (P<0.05), the least significant difference (LSD) test is used to determine differences between groups within times.

[2] = system: estrus and ovulation in mares; details: prior knowledge; cited from earlier work
[3] = system: injection site swelling in mares; assay: Injection site assessment (swelling score 0-3) in mares; format: in vivo, mares (equine); details: compared to controls (FIG. 1)
Method: Injection site assessments are made on days 0, 1, 3, 6, and 9 post-treatment. Scores are based on a subjective scale of 0-3. Zero means no swelling; one means slight diameter swelling (i.e. about 12.5 mm); 2 means moderate diameter swelling (i.e. about 12.5 to 25 mm); and 3 means significant swelling (i.e. more than 25 mm). Plasma concentrations of progesterone are measured with commercially available reagents (Diagnostic Systems Laboratories, Webster, Tex.). Intra- and interassay CV and assay sensitivities are 5%, 8%, and 0.1 ng/mL. Data are analyzed by the Proc Mixed procedure of SAS (SAS Institute Inc., Cary, N.C.). Single point variables are analyzed via a one way ANOVA. Data from injection site scores are analyzed for effects of treatment, time, and treatment by time interactions with repeated measures. When a significant F is detected (P<0.05), the least significant difference (LSD) test is used to determine differences between groups within times.

SMILES | Effectiveness at delaying estrus and ovulation (in words) ([1]; compared to controls) | Days to ovulation ([1]; relative to administration of dinoprost tromethamine and treatment, mean ± SE) | Days to estrus ([1]; single injection on d0 together with 2 mL dinoprost tromethamine, mean ± SE) | Effect on estrus and ovulation (background, in words) [2] | Injection site swelling / biocompatibility (in words) [3]
CC(=O)O[C@]1(C(C)=O)CC[C@H]2[C@@H]3C[C@H](C)C4=CC(=O)CC[C@]4(C)[C@H]3CC[C@@]21C [Medroxyprogesterone, Medroxyprogesterone acetate] | not effective at delaying estrus or ovulation | 11.3 ± 2.14^a days | 6.2 ± 1.38^a days | not to effect estrus, ovulation or pregnancy maintenance | most biocompatible formulation
C=CC[C@]1(O)CC[C@H]2[C@@H]3CCC4=CC(=O)CCC4=C3C=C[C@@]21C [Altrenogest, 17-α-Allyl-17-β-hydroxyoestra-4,9,11-trien-3-one] |  |  |  | suppress estrus and ovulation | 
CC(=O)[C@H]1CC[C@H]2[C@@H]3CCC4=CC(=O)CC[C@]4(C)[C@H]3CC[C@]12C [progesterone] |  |  |  | suppress estrus and ovulation | 
